According to article PMC7104248, “Discovery of Taniborbactam (VNRX-5133): A Broad-Spectrum Serine- and Metallo-β-lactamase Inhibitor for Carbapenem-Resistant Bacterial Infections” (Journal of Medicinal Chemistry, 2019):
pIC50: −log10 of the molar value. ≈ marks a conversion by molar mass, not a printed value. Like-named read-outs stand apart in the source and are kept apart here.

Key:
[1] = target: hERG potassium channel (Homo sapiens, UniProt Q12809); test: selectivity panel at 100 μM
Source text: (§1) The panel included serine proteases (i.e., cathepsin G, chymotrypsin, Factor Xa, trypsin, and neutrophil elastase 2), metalloproteinases (MMP-1, -2, -3, and -9), cytochrome P450s (1A2, 2C9, 2C19, 2D6, and 3A4), and the hERG potassium channel.

[2] = system: panel of 50 human enzymes and receptors; test: selectivity panel at 100 μM
Source text: as §1

[3] = target: T1, IMP-1 (Serratia marcescens, UniProt P52699); conditions: read-out: IC50 IMP-1, literature value in parentheses; cited from earlier work
[4] = system: P. aeruginosa 27853 (W/T); test: intrinsic antibacterial activity, MIC; type: cell-based; conditions: Pseudomonas aeruginosa
[5] = system: chymotrypsin; test: selectivity panel at 100 μM; type: biochemical, human
Source text: as §1

[6] = system: trypsin; test: selectivity panel at 100 μM; type: biochemical, human
Source text: as §1

[7] = system: P. aeruginosa Ps296 (AmpC, VIM-2, TEM-1); test: intrinsic antibacterial activity, MIC; type: cell-based; conditions: Pseudomonas aeruginosa
[8] = system: E. coli 25922 (W/T); test: intrinsic antibacterial activity, MIC; type: cell-based; conditions: Escherichia coli
[9] = system: K. pneumoniae CI 09 (W/T); test: intrinsic antibacterial activity, MIC; type: cell-based; conditions: Klebsiella pneumoniae
[10] = system: K. pneumoniae UMM (SHV5, KPC-2, TEM-1); test: intrinsic antibacterial activity, MIC; type: cell-based; conditions: Klebsiella pneumoniae
[11] = system: K. pneumoniae 11978 (OXA-48); test: intrinsic antibacterial activity, MIC; type: cell-based; conditions: Klebsiella pneumoniae
[12] = system: CphA; conditions: read-out: IC50 subclass B2 MBL CphA; cited from earlier work
[13] = target: OXA-48 (Klebsiella pneumoniae, UniProt Q6XEC0); conditions: read-out: IC50 OXA-48, literature value in parentheses; cited from earlier work
[14] = system: S. aureus 29213 (W/T); test: intrinsic antibacterial activity, MIC; type: cell-based; conditions: Staphylococcus aureus
[15] = target: cytochrome P450 2D6 (Homo sapiens, UniProt P10635); test: selectivity panel at 100 μM; type: in vitro ADME
Source text: as §1

[16] = target: cytochrome P450 1A2 (Homo sapiens, UniProt P05177); test: selectivity panel at 100 μM; type: in vitro ADME
Source text: as §1

[17] = target: cytochrome P450 3A4 (Homo sapiens, UniProt P08684); test: selectivity panel at 100 μM; type: in vitro ADME
Source text: as §1

[18] = target: cytochrome P450 2C9 (Homo sapiens, UniProt P11712); test: selectivity panel at 100 μM; type: in vitro ADME
Source text: as §1

[19] = target: cytochrome P450 2C19 (Homo sapiens, UniProt P33261); test: selectivity panel at 100 μM; type: in vitro ADME
Source text: as §1

[20] = system: 14 Gram-negative pathogens expressing class B enzymes (VIM-1, VIM-2, VIM-4, NDM-1); type: cell-based; conditions: 14 MBL-producing strains
[21] = system: human primary renal proximal tubule cells; test: toxicity in renal proximal tubule cells; type: cell-based; conditions: tested up to 1000 μg/mL
[22] = system: K. pneumoniae A-1797 (KPC-2, VIM-4, CMY-4); test: microbe, parasite or virus in culture; type: cell-based; conditions: Klebsiella pneumoniae
[23] = target: MMP-1 (Homo sapiens, UniProt P03956); test: selectivity panel at 100 μM; type: biochemical
Source text: as §1

[24] = target: MMP-2 (Homo sapiens, UniProt P08253); test: selectivity panel at 100 μM; type: biochemical
Source text: as §1

[25] = target: MMP-3 (Homo sapiens, UniProt P08254); test: selectivity panel at 100 μM; type: biochemical
Source text: as §1

[26] = target: cathepsin G (Homo sapiens, UniProt P08311); test: selectivity panel at 100 μM; type: biochemical
Source text: as §1

[27] = target: MMP-9 (Homo sapiens, UniProt P14780); test: selectivity panel at 100 μM; type: biochemical
Source text: as §1

[28] = target: neutrophil elastase 2 (Homo sapiens, UniProt P08246); test: selectivity panel at 100 μM; type: biochemical
Source text: as §1

[29] = target: T2, Factor Xa (Homo sapiens, UniProt P00742); test: selectivity panel at 100 μM; type: biochemical
T2 construct: serine proteases (i.e., cathepsin G, chymotrypsin, Factor Xa, trypsin, and neutrophil elastase 2)
Source text: as §1

[30] = system: E. aerogenes 188548 (AmpC); test: intrinsic antibacterial activity, MIC; type: cell-based; conditions: Klebsiella aerogenes
[31] = system: E. coli J53 (SHV5, AmpC, TEM-1); test: intrinsic antibacterial activity, MIC; type: cell-based; conditions: Escherichia coli
[32] = preclinical toxicity evaluation
Source text: NCT03840148 at ClinicalTrials.gov).

[33] = system: L1; set-up: method as in PMID 31454231; conditions: cited from earlier work
[34] = system: E. cloacae 144200 (p99 AmpC); test: intrinsic antibacterial activity, MIC; type: cell-based; conditions: Enterobacter cloacae
[35] = system: S. aureus 33591 (MRSA); test: intrinsic antibacterial activity, MIC; type: cell-based; conditions: Staphylococcus aureus
[36] = target: T1, IMP-1; test: β-lactamase inhibition assay, nitrocefin substrate; type: biochemical
[37] = target: NDM-1 (Klebsiella pneumoniae, UniProt C7C422); test: biochemical
[38] = target: VIM-2 (Escherichia coli, UniProt Q5U7L7); test: β-lactamase inhibition assay, nitrocefin substrate; type: biochemical; conditions: in our hands
[39] = system: K. pneumoniae CDC-0040 (VIM-27, CTX-M-15, SHV-11, OXA-1); test: MIC, rescue of β-lactams in MDR clinical isolates; type: cell-based; conditions: Klebsiella pneumoniae
[40] = system: E. coli CDC-0055 (NDM-1, CMY-6, OXA-1); test: MIC, rescue of β-lactams in MDR clinical isolates; type: cell-based; conditions: Escherichia coli
[41] = system: K. pneumoniae UNT-065-1 expressing CTX-M-14; test: neutropenic mouse lung infection model; type: in vivo; conditions: neutropenic mice
[42] = system: E. coli CDC-0452 (NDM); test: MIC, rescue of β-lactams in MDR clinical isolates; type: cell-based; conditions: Escherichia coli
[43] = system: P. aeruginosa CDC-0356 (KPC-2, PDC-42); test: MIC, rescue of β-lactams in MDR clinical isolates; type: cell-based; conditions: Pseudomonas aeruginosa
[44] = system: P. aeruginosa CDC-0457 (VIM); test: MIC, rescue of β-lactams in MDR clinical isolates; type: cell-based; conditions: Pseudomonas aeruginosa
[45] = system: K. pneumoniae (CTX-M-14); test: MIC against the lung model strain; type: cell-based; conditions: Klebsiella pneumoniae
[46] = system: K. pneumoniae CDC-0066 (OXA-232, OXA-9, TEM-1A, CTX-M-15, OXA-1); test: MIC, rescue of β-lactams in MDR clinical isolates; type: cell-based; conditions: Klebsiella pneumoniae
[47] = system: E. coli (CTX-M-15); test: MIC against the urinary tract model strain; type: cell-based; conditions: Escherichia coli
[48] = system: K. pneumoniae ATCC BAA 1705 (KPC-2); test: MIC, rescue of β-lactams in MDR clinical isolates; type: cell-based; conditions: Klebsiella pneumoniae
[49] = system: E. coli UNT-057-1 expressing CTX-M-15; test: mouse ascending urinary tract infection model; type: in vivo; conditions: mice, at day 7; BID s.c.; cefepime alone, cefepime/VNRX-5133 16:8, Caz/Avi 16:4 mg/kg/dose
[50] = system: K. pneumoniae CDC-0361 (KPC-2, SHV-12, TEM-1); test: MIC, rescue of β-lactams in MDR clinical isolates; type: cell-based; conditions: Klebsiella pneumoniae
[51] = system: K. pneumoniae expressing KPC-2; test: broth microdilution MIC, meropenem potentiation; type: cell-based; conditions: Klebsiella pneumoniae, read-out: MIC of meropenem alone
[52] = system: K. pneumoniae expressing KPC-2 and VIM-4; test: broth microdilution MIC, meropenem potentiation; type: cell-based; conditions: Klebsiella pneumoniae, read-out: MIC of meropenem alone
[53] = system: K. pneumoniae expressing OXA-48; test: broth microdilution MIC, meropenem potentiation; type: cell-based; conditions: Klebsiella pneumoniae, read-out: MIC of meropenem alone
[54] = system: P. aeruginosa expressing VIM-2; test: broth microdilution MIC, meropenem potentiation; type: cell-based; conditions: Pseudomonas aeruginosa, read-out: MIC of meropenem alone

Sequence of NDM-1 (C7C422 29-270 limits assumed): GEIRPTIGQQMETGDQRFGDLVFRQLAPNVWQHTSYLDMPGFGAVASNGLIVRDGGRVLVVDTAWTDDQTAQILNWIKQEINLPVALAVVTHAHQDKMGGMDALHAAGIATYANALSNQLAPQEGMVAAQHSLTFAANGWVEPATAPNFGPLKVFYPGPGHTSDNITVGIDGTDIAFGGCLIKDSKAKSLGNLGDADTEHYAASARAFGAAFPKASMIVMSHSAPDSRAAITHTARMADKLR
T1 sequence (P52699 19-246 limits assumed): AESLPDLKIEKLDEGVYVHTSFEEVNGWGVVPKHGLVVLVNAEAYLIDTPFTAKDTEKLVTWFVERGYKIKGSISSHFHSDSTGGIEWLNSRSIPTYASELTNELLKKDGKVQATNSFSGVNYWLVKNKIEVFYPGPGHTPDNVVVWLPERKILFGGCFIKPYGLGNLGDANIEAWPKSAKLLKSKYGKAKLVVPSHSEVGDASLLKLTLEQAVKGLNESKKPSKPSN
Sequence of hERG potassium channel (Q12809 whole entry): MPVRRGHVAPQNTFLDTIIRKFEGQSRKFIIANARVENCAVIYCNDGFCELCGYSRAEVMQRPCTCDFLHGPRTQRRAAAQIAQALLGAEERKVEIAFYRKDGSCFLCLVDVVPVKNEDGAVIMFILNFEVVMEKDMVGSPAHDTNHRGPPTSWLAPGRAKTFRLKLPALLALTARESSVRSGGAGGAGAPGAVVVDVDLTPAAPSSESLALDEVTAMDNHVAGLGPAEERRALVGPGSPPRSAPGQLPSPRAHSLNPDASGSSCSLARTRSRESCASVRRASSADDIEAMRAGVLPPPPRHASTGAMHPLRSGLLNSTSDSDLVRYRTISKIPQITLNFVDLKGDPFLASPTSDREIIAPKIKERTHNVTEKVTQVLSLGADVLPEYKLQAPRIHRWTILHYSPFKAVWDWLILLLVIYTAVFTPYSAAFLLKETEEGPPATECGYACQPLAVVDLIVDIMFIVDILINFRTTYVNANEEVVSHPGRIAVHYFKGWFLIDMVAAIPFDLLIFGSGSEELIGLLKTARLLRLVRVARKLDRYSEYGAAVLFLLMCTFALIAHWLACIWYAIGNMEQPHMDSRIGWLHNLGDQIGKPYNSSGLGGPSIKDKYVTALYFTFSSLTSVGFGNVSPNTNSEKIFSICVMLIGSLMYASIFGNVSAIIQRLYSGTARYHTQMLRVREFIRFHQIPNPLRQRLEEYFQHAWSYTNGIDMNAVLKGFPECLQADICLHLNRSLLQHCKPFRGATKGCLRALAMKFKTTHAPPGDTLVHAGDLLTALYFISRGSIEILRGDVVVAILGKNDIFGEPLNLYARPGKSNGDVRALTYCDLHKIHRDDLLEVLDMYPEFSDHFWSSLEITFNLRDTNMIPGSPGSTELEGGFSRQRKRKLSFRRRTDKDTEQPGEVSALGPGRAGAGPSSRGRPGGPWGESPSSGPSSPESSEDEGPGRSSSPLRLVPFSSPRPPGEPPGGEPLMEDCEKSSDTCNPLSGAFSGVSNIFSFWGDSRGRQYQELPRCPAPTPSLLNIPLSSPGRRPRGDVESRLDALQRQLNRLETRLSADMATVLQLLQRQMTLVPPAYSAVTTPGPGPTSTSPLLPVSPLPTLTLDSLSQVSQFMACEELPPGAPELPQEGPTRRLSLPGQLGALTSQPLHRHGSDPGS
Sequence of MMP-1 (P03956 100-469): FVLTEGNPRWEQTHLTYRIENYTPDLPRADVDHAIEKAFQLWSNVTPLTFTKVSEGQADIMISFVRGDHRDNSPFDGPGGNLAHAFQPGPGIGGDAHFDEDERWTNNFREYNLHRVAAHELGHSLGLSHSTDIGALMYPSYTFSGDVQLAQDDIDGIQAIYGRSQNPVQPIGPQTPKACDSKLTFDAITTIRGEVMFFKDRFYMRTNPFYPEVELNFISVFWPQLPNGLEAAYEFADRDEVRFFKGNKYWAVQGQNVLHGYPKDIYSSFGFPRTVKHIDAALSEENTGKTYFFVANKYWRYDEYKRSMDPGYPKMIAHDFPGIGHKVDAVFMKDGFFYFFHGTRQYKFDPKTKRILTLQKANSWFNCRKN
Sequence of cytochrome P450 2D6 (P10635 whole entry): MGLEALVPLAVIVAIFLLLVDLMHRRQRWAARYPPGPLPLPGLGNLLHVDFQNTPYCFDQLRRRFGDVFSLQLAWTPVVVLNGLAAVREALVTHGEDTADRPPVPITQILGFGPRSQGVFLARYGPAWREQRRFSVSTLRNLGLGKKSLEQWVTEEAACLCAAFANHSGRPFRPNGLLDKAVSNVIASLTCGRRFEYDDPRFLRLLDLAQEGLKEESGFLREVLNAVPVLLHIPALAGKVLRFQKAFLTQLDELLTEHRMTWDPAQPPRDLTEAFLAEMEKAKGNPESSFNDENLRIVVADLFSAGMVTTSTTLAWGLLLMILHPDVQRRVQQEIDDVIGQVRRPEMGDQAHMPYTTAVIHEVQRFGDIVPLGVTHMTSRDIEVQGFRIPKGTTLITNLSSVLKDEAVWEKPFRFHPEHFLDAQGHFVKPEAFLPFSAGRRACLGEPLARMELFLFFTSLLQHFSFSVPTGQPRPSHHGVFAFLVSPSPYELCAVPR
Sequence of neutrophil elastase 2 (P08246 30-267): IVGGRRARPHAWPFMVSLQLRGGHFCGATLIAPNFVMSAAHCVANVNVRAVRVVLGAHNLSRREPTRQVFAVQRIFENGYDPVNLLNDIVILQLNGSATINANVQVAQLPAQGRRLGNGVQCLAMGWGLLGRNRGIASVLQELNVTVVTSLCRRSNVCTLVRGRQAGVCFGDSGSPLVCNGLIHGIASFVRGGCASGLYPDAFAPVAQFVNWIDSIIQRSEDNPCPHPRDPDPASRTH
T2 sequence (P00742 235-488 limits assumed): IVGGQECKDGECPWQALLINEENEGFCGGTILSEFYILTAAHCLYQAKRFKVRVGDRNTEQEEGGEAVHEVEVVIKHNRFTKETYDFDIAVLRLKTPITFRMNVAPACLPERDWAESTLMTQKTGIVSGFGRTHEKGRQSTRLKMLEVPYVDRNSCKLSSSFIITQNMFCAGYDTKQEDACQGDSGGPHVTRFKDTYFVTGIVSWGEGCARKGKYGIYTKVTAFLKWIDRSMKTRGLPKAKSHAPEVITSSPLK
T2 sequence (P00742 41-179 partner limits assumed): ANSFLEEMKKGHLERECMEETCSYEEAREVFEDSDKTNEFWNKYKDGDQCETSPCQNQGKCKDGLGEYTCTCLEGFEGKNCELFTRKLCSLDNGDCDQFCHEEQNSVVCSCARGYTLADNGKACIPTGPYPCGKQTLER
Sequence of cytochrome P450 1A2 (P05177 whole entry): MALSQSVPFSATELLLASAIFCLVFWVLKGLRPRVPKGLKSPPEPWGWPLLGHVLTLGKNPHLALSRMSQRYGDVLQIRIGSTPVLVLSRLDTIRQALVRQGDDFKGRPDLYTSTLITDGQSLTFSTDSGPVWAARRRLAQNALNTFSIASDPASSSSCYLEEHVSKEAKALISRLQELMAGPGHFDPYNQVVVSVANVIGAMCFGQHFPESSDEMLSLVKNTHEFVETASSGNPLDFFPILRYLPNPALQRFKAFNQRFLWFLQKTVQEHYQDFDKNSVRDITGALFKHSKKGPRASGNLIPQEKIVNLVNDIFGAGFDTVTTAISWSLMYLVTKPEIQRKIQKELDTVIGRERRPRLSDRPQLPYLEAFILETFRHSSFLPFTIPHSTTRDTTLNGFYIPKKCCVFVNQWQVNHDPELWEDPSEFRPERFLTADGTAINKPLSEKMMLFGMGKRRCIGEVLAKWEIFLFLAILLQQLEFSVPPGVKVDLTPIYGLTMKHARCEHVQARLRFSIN
Sequence of MMP-3 (P08254 100-477): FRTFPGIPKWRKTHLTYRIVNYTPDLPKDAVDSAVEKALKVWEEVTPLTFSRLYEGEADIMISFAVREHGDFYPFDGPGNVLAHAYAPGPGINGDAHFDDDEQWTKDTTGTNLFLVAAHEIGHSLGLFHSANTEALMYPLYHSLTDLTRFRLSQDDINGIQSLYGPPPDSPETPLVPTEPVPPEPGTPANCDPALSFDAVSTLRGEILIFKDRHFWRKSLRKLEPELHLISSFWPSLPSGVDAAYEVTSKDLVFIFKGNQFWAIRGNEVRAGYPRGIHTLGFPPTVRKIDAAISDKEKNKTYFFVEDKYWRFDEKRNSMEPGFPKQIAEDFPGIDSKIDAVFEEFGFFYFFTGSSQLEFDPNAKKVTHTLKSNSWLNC
Sequence of cathepsin G (P08311 21-255): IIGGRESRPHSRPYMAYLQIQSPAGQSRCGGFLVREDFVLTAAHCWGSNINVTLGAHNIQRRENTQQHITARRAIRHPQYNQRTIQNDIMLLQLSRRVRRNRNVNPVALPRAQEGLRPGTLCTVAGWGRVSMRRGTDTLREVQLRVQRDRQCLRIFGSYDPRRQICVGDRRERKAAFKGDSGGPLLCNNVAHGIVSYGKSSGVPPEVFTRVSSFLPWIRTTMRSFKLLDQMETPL
Sequence of MMP-9 (P14780 94-707): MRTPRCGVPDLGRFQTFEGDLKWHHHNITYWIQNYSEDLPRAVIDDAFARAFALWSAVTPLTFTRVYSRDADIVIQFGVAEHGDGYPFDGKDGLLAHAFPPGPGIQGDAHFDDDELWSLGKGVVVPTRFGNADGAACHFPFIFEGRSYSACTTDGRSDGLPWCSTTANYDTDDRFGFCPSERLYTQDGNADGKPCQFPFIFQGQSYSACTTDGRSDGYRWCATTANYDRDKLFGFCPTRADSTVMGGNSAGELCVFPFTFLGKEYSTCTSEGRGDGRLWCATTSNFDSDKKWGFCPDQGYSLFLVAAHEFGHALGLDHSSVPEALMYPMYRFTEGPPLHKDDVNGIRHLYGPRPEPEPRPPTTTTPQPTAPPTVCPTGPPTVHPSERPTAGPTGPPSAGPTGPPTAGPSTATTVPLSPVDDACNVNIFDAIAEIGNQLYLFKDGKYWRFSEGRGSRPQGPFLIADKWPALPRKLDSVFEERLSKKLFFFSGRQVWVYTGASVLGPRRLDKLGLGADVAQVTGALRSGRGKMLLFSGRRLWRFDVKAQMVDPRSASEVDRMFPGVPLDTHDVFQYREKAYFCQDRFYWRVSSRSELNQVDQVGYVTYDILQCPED

## NCCN[C@H]1CC[C@H](CC(=O)N[C@H]2Cc3cccc(C(=O)O)c3OB2O)CC1 [compound 20, (3R)-3-(2-{trans-4-[(2-Aminoethyl)amino]cyclohexyl}acetamido)-2-hydroxy-3,4-dihydro-2H-1,2-benzoxaborinine-8-carboxylic Acid]
[1]
  activity against hERG potassium channel: no significant activity
[2]
  activity against panel of 50 human enzymes and receptors: no significant activity
[3]
  pIC50: 5.60
[4]
  MIC: > 128 µg/mL
[5]
  activity against chymotrypsin: no significant activity
[6]
  activity against trypsin: no significant activity
[7]
  MIC: > 128 µg/mL
[8]
  MIC: > 128 µg/mL
[9]
  MIC: > 128 µg/mL
[10]
  MIC: > 128 µg/mL
[11]
  MIC: > 128 µg/mL
[12]
  pIC50: ~5.60
[13]
  pIC50: 6.27
[14]
  MIC: > 128 µg/mL
[15]
  activity against cytochrome P450 2D6: no significant activity
[16]
  activity against cytochrome P450 1A2: no significant activity
[17]
  activity against cytochrome P450 3A4: no significant activity
[18]
  activity against cytochrome P450 2C9: no significant activity
[19]
  activity against cytochrome P450 2C19: no significant activity
[20]
  decrease in the MIC of cefepime on addition of BLI: ≥ 512 fold
[21]
  toxicity in human primary proximal tubule cells: No toxicity
[22]
  MIC: > 128 µg/mL
[23]
  activity against MMP-1: no significant activity
[24]
  activity against MMP-2: no significant activity
[25]
  activity against MMP-3: no significant activity
[26]
  activity against cathepsin G: no significant activity
[27]
  activity against MMP-9: no significant activity
[28]
  activity against neutrophil elastase 2: no significant activity
[29]
  activity against Factor Xa: no significant activity
[30]
  MIC: > 128 µg/mL
[31]
  MIC: > 128 µg/mL
[32]
  safety profile in the preclinical toxicity evaluation: clean safety profile
[33]
  inhibition of subclass B3 MBL L1: did not inhibit
[34]
  MIC: > 128 µg/mL
[35]
  MIC: > 128 µg/mL

## O=C(O)C[C@@H]1CC[C@H](NC(=O)Cc2cccs2)B(O)O1 [vaborbactam]
[36]
  pIC50: < 4.00
[37]
  pIC50: < 4.00

## CC(=O)N[C@H]1Cc2cccc(C(=O)O)c2OB1O [compound 1]
[38]
  inhibition of the MBL VIM-2, in words: micromolar levels

## CO/N=C(\C(=O)N[C@@H]1C(=O)N2C(C(=O)[O-])=C(C[N+]3(C)CCCC3)CS[C@H]12)c1csc(N)n1 [cefepime]
[39]; read-out: FEP MIC
  MIC: > 128 µg/mL
[40]; read-out: FEP MIC
  MIC: 128 µg/mL (≈ 266 µM)
[41]; at 24 h, cefepime alone 32, cefepime/VNRX-5133 32:16, Caz/Avi 32:8 mg/kg s.c. single dose
  log10 CFU/lung: 9.27 ± 0.21 log10 CFU/lung
[41]; single subcutaneous dose, cefepime 32 mg/kg alone or cefepime/20 32 and 16 mg/kg, 24 h
  reduction in viable bacterial counts in lung tissue: not effective
[42]; read-out: FEP MIC
  MIC: 64 µg/mL (≈ 133 µM)
[43]; read-out: FEP MIC
  MIC: > 128 µg/mL
[44]; read-out: FEP MIC
  MIC: 16 µg/mL (≈ 33.3 µM)
[45]
  MIC: 64 µg/mL (≈ 133 µM)
[46]; read-out: FEP MIC
  MIC: > 128 µg/mL
[47]
  MIC: 128 µg/mL (≈ 266 µM)
[48]; BAA1705, read-out: FEP MIC
  MIC: 16 µg/mL (≈ 33.3 µM)
[49]
  log10 CFU/kidney: 7.25 ± 0.16 log10 CFU/kidney
[50]; read-out: FEP MIC
  MIC: 32 µg/mL (≈ 66.6 µM)

## C[C@@H](O)[C@H]1C(=O)N2C(C(=O)O)=C(S[C@@H]3CN[C@H](C(=O)N(C)C)C3)[C@H](C)[C@H]12 [meropenem]
[51]
  MIC: ≥ 32 µg/mL
[52]
  MIC: ≥ 32 µg/mL
[53]
  MIC: ≥ 32 µg/mL
[54]
  MIC: ≥ 32 µg/mL

## NC(=O)[C@@H]1CC[C@@H]2CN1C(=O)N2OS(=O)(=O)O [avibactam]
[36]
  pIC50: < 4.00
[37]
  pIC50: < 4.00

## CCN1CCN(C(=O)N[C@@H](C(=O)N[C@@H]2C(=O)N3[C@@H]2SC(C)(C)[C@@H]3C(=O)O)c2ccccc2)C(=O)C1=O [piperacillin]
[39]; read-out: PIP MIC
  MIC: > 128 µg/mL
[40]; read-out: PIP MIC
  MIC: > 128 µg/mL
[42]; read-out: PIP MIC
  MIC: > 128 µg/mL
[43]; read-out: PIP MIC
  MIC: > 128 µg/mL
[44]; read-out: PIP MIC
  MIC: 64 µg/mL (≈ 124 µM)
[46]; read-out: PIP MIC
  MIC: > 128 µg/mL
[48]; BAA1705, read-out: PIP MIC
  MIC: > 128 µg/mL
[50]; read-out: PIP MIC
  MIC: > 128 µg/mL

## C[C@]1(Cn2ccnn2)[C@H](C(=O)O)N2C(=O)C[C@H]2S1(=O)=O [tazobactam]
[36]
  pIC50: < 4.00
[37]
  pIC50: < 4.00

## O=C(O)[C@H]1/C(=C/CO)O[C@@H]2CC(=O)N21 [clavulanic acid]
[36]
  pIC50: < 4.00
[37]
  pIC50: < 4.00

## NCc1ccc(CC(=O)N[C@H]2Cc3cccc(C(=O)O)c3OB2O)cc1 [compound 3]
[38]
  inhibition of the MBL VIM-2, in words: micromolar levels
